The nature of series [1]: Stability in human blood plasma. As to conditions: 10 μM in pooled human blood plasma, incubated 4 hours at 37° C.
Series [2] can be described thus: General cytotoxicity on HepG2 cells (CC50; therapeutic index CC50 HepG2/IC50 Mino). The class given is cell-based. The settings on record: human, HepG2 cells (hepatocellular carcinoma); Table 10; 72 hours, Alamar Blue; average of several tests. The protocol: (§1) The CC50 values were determined in the test for General cytotoxicity on HepG2 cells (hepatocellular carcinoma, ATCC® HB-8065™). 2*10^4 cells (in 50 μl) per well were seeded in 96-well plates (Corning, #3599) in DMEM medium (PanEco, #S420p), after 24 h of incubation 150 μl of candidate compounds were added to each well in the range of final concentrations from 200 μM to 4 μM and the plate was incubated in a total volume of 200 μl for 72 hours. Viability of the cells was assessed using Alamar Blue dye (Invitrogen, #DAL 1100). CC50 was determined similarly (table 10).
(§2) The relationship between toxic (CC50) and a therapeutic (IC50) effects of the dose is the therapeutic index, which can be expressed as the ratio between CC50 (HepG2) (general cytotoxicity of the candidate) and IC50 (Mino) (antiproliferative activity on the target cells): […]
Background: The colour change of resazurin is a common sign of viable cells or microbes.

Series [3] concerns HepG2 cells (hepatocellular carcinoma). Described as above. As to conditions: Table 10; therapeutic index. The class given is cell-based. The protocol: as §1, §2
Series [4] in a line: Chemical stability in artificial gastric fluid (SGF without enzymes). The settings on record: 10 μM in SGF without enzymes, pH=1.4, 37° C.
In series [5] the test system is Z-138 (mantle cell lymphoma). Description: Antiproliferative activity, Z-138 cells (Alamar Blue). As to conditions: Homo sapiens, Table 10, 72 h, average of several tests. The class given is cell-based. Here is the method:
(§3) Antiproliferative activity of BTK inhibitors was measured in cell-based bioassay on B-cells cultures: Mino (mantle cell lymphoma, ATCC® CRL-3000™), Z-138 (mantle cell lymphoma, ATCC® CRL-3001™) and DOHH2 (follicular lymphoma, Creative Bioarray CSC-C0219) using cell viability reagent Alamar Blue (Invitrogen, #DAL 1100). Cells were cultured in 10% FB S-supplemented (HyClone, #SH3008803/Gibco, #16140-071) RPMI-1640 (PanEco, #S330p) for at least 1 passage after thawing, washed with PBS and passaged in 96-well culture plates (Corning, #3599) with growth medium with 10% FBS (HyClone, #SH3008803/Gibco, #16140-071) and antibiotic (50 μg/ml of gentamicin (Biolot, #1.3.16))≈3*10^4 cells in 50 μl of medium per well.
(§4) The compounds were dissolved in DMSO and diluted with the assay medium to final concentrations ranging from […]. 150 μl of each diluted compound were then added to each well (final concentration of DMSO was less than 1%) and incubated at 37° C. in an incubator under 5% of CO2 for 72 h. After incubation, 20 μl of Alamar Blue reagent (Invitrogen, #DAL1100) were added to each well. The plates were shaked on an orbital shaker (Biosan, Latvia) and then incubated for 14-16 hours at 37° C. in the incubator.
(§5) The number of living cells were estimated, measuring the fluorescence signal at the excitation wavelength (REx) of 540 nm and the emission wavelength (λEm) of 590 nm on a microplate reader (Tecan Infinite M200Pro, Switzerland).
(§6) For each compound, IC50 was calculated using Magellan 7.2 software (Tecan, Switzerland) approximating experimental points by four-parameter logistic model with the optimization by Levenberg-Marquardt.

Series [6] concerns Mino (mantle cell lymphoma). Description: Antiproliferative activity, Mino cells (Alamar Blue). The class given is cell-based. The settings on record: Homo sapiens, Table 10, 72 h, average of several tests. The protocol: as §3, §4, §5, §6

Each structure is given as a SMILES string.

`C=CC(=O)N1CCC[C@@H](n2nc(-c3ccc(C(=O)Nc4cc(C(F)(F)F)ccn4)cc3)c3c(N)ncc(Cl)c32)C1` [BCD-BTK -251, (R)-4-(1-(1-acryloylpiperidin-3-yl)-4-amino-7-chloro-1H-pyrazolo[4,3-c]pyridin-3-yl)-N-(4-(trifluoromethyl)pyridin-2-yl)benzamide]: in series [1], the “Amount of substance in the sample, % (stability in human blood plasma)” value (shortened to “Amount of substance in the sample, %”) was determined as 89.2%.
As for `C=CC(=O)N1CCC[C@@H](n2nc(-c3ccc(C(=O)Nc4cc(C(F)(F)CCC)ccn4)cc3)c3cncc(Cl)c32)C1` [BCD-BTK -252, (R)-4-(1-(1-acryloylpiperidin-3-yl)-7-chloro-1H-pyrazolo[4,3-c]pyridin-3-yl)-N-(4-(1,1-difluorobutyl)pyridin-2-yl)benzamide], the “Amount of substance in the sample, %” value in series [1] is listed as 85.2%.
As to `C=CC(=O)N1CCC[C@@H](n2nc(-c3ccc(Oc4ccncc4)cc3)c3c(N)ncc(C#N)c32)C1` [BCD-BTK -134, (R)-1-(1-acryloylpiperidin-3-yl)-4-amino-3-(4-(pyridin-4-yloxy)phenyl)-1H-pyrazolo[4,3-c]pyridin-7-carbonitrile], the “Amount of substance in the sample, %” value in series [1] is 89.7%.
Take `C=CC(=O)N1CCC[C@@H](n2nc(-c3ccc(C(=O)Nc4cc(C(F)(F)CCC)ccn4)cc3)c3c(N)ncc(Cl)c32)C1` [BCD-BTK -254, (R)-4-(1-(1-acryloylpiperidin-3-yl)-4-amino-7-chloro-1H-pyrazolo[4,3-c]pyridin-3-yl)-N-(4-(1,1-difluorobutyl)pyridin-2-yl)benzamide]: the “Amount of substance in the sample, %” value in series [1] amounted to 93.0%.
As for `C=CC(=O)N1CCC[C@@H](n2nc(-c3ccc(C(=O)Nc4cccc(F)n4)cc3)c3c(N)ncc(Cl)c32)C1` [BCD-BTK -250, (R)-4-(1-(1-acryloylpiperidin-3-yl)-4-amino-7-chloro-1H-pyrazolo[4,3-c]pyridin-3-yl)-N-(6-fluoropyridin-2-yl)benzamide], in series [1], the “Amount of substance in the sample, %” value is recorded as 84.5%.
A word on the CC50: it is the concentration giving 50% cytotoxicity. As usually defined, the IC50 is the point on the concentration scale where inhibition reaches its midpoint. Read a high IC50 as a need for much substance. Turning to `C=CC(=O)Nc1cc2c(-c3ccc(-n4ccc(=O)cc4)cc3)nn([C@@H]3CCCN(C(=O)C=C)C3)c2nc1C` [BCD-BTK-117, (R)-N-(1-(1-acryloylpiperidin-3-yl)-6-methyl-3-(4-(4-oxopyridin-1(4H)-yl)phenyl)-1H-pyrazolo[3,4-b]pyridin5-yl)acrylamide], the CC50 at 72 h in series [2] is > 50 µM. Besides, the “CC50 (HepG2)/IC50 (Mino)” value in series [3] is given as >3.76. Besides, the “Amount of substance in the sample in % (chemical stability)” value (shortened to “Amount of substance in the sample in %”) in series [4] came out at 99.7%. Further, the values for the IC50 in series [5] and in series [6] were 23.4 µM and 13.3 µM, respectively.
With `C=CC(=O)N1CCC[C@@H](n2nc(-c3cnc(-n4ccc(=O)c(C(N)=O)c4)nc3)c3cncc(Cl)c32)C1` [BCD-BTK-207, (R)-1-(5-(1-(1-acryloylpiperidin-3-yl)-7-chloro-1H-pyrazolo[4,3-c]pyridin-3-yl)pyrimidin-2-yl)-4-oxo-1,4-dihydropyridine-3-carboxamide], the “Amount of substance in the sample, %” value in series [1] was 82.6%.
As to `C=CC(=O)N1CC(Cn2nc(-c3ccc(Oc4ccncc4)cc3)c3cncc(Cl)c32)C1` [BCD-BTK-264, 1-(3-((7-chloro-3-(4-(pyridin-4-yloxy)phenyl)-1H-pyrazolo[4,3-c]pyridin-1-yl)methyl)azetidin-1-yl)prop-2-en-1-one], the CC50 at 72 h in series [2] was 10.5 µM. Besides, in series [3], the “CC50 (HepG2)/IC50 (Mino)” value worked out at 2.13. The “Amount of substance in the sample in %” value in series [4] is on record as 97.8%. In addition, the IC50 in series [5] worked out at 14.3 µM; in series [6], 4.92 µM.
With `C=CC(=O)N1CCC[C@@H](n2nc(-c3ccc(Oc4ccncc4)cc3)c3cncc(Cl)c32)C1` [BCD-BTK -125, (R)-1-(1-acryloylpiperidin-3-yl)-7-chloro-3-(4-(pyridin-4-yloxy)phenyl)-1H-pyrazolo[4,3-c]pyridine], the “Amount of substance in the sample, %” value in series [1] is 97.8%.
Take `CC#CC(=O)N1CC[C@H](n2nc(-c3ccc(Oc4ccncc4)cc3)c3cncc(Cl)c32)C1` [BCD-BTK-270, (S)-1-(3-(7-chloro-3-(4-(pyridin-4-yloxy)phenyl)-1H-pyrazolo[4,3-c]pyridin-1-yl)pyrrolidin-1-yl)but-2-yn-1-one]: in series [2], half-maximal cytotoxicity (CC50 at 72 h) was put at 23.4 µM. The “CC50 (HepG2)/IC50 (Mino)” value in series [3] worked out at 3.45. Besides, the “Amount of substance in the sample in %” value in series [4] is given as 99.1%. The IC50 turned out to be 14.3 µM in series [5] and 6.79 µM in series [6].
In the case of `C=CC(=O)N1CCC[C@@H](n2nc(-c3ccc(Oc4ccncc4)cc3)c3cncc(C(N)=O)c32)C1` [BCD-BTK-140, (R)-1-(1-acryloylpiperidin-3-yl)-3-(4-(pyridin-4-yloxy)phenyl)-1H-pyrazolo[4,3-c]pyridin-7-carboxamide], the CC50 at 72 h in series [2] is > 100 µM. Moreover, the “CC50 (HepG2)/IC50 (Mino)” value in series [3] is on record as >5.93. Moreover, the “Amount of substance in the sample in %” value in series [4] worked out at 99.4%. For the same molecule, the IC50 was > 50 µM in series [5] and 16.9 µM in series [6].
`C=CC(=O)N1CCC[C@@H](n2nc(-c3ccc(Oc4ccncc4)cc3)c3c(N)ncc(Cl)c32)C1` [BCD-BTK -139, (R)-1-(1-acryloylpiperidin-3-yl)-7-chloro-3-(4-(pyridin-4-yloxy)phenyl)-1H-pyrazolo[4,3-c]pyridin-4-amine]: the “Amount of substance in the sample, %” value in series [1] is recorded as 87.1%.
In series [2], `C=CC(=O)N1CCC[C@@H](n2nc(-c3ccc(-n4ccc(=O)cc4)cc3)c3cncc(Cl)c32)C1` [BCD-BTK-30, (R)-1-(4-(1-(1-acryloylpiperidin-3-yl)-7-chloro-1H-pyrazolo[4,3-c]pyridin-3-yl)phenyl)pyridin-4(1H)-one] registered a CC50 at 72 h of 61.5 µM. In addition, the “CC50 (HepG2)/IC50 (Mino)” value in series [3] was determined as 3.94. Also, the “Amount of substance in the sample in %” value in series [4] turned out to be 97.7%. For the same molecule, the IC50 in series [5] turned out to be 22.7 µM; in series [6] it was 15.6 µM.
Consider `C=CC(=O)N1CCC[C@@H](n2nc(-c3ccc(-n4ccc(=O)cc4)cc3)c3c(N)ncc(Cl)c32)C1` [BCD-BTK-9, (R)-1-(4-(1-(1-acryloylpiperidin-3-yl)-4-amino-7-chloro-1H-pyrazolo[4,3-c]pyridin-3-yl)phenyl)pyridin-4(1H)-one], for which the 50% cytotoxic concentration (CC50) at 72 h in series [2] is > 100 µM. The “CC50 (HepG2)/IC50 (Mino)” value in series [3] is >4.25. The “Amount of substance in the sample in %” value in series [4] is 100.0%. Moreover, the IC50 in series [5] is 44.1 µM; in series [6], 23.5 µM.
The molecule `C=CC(=O)N1CCC[C@@H](n2nc(-c3cnc(-n4ccc(=O)cc4)nc3)c3c(N)ncc(Cl)c32)C1` [BCD-BTK-74, (R)-1-(5-(1-(1-acryloylpiperidin-3-yl)-4-amino-7-chloro-1H-pyrazolo[4,3-c]pyridin-3-yl)pyrimidin-2-yl)pyridin-4(1H)-one] registered a CC50 at 72 h in series [2] of 100 µM. For the same molecule, the “CC50 (HepG2)/IC50 (Mino)” value in series [3] was determined as 4.57. Besides, the “Amount of substance in the sample in %” value in series [4] is on record as 98.7%. In addition, the IC50 came out at 17.6 µM in series [5] and 21.9 µM in series [6].
As for `C=CC(=O)N1CCC[C@@H](n2nc(-c3ccc(-n4ccc(=O)cc4)nc3)c3c(N)ncc(Cl)c32)C1` [BCD-BTK-76, (R)-5′-(1-(1-acryloylpiperidin-3-yl)-4-amino-7-chloro-1H-pyrazolo[4,3-c]pyridin-3-yl)-4H-[1,2′-bipyridin]-4-one], in series [2], the CC50 at 72 h was > 100 µM. The “CC50 (HepG2)/IC50 (Mino)” value in series [3] is on record as >6.27. The “Amount of substance in the sample in %” value in series [4] was found to be 99.7%. In addition, the IC50 is 19.6 µM in series [5] and 16 µM in series [6].
In series [2], `C=CC(=O)N1CCC[C@@H](n2nc(-c3ccc(C(=O)Nc4cc(C(C)(F)F)ccn4)cc3)c3cncc(C#N)c32)C1` [BCD-BTK-224, 4-{7-cyano-1-[(3R)-1-(prop-2-enoyl)piperidin-3-yl]-1H-pyrazolo[4,3-c]pyridin-3-yl}-N-[4-(1,1-difluoroethyl)pyridin-2-yl]benzamide] returned a cytotoxic concentration (CC50) at 72 h of 73.1 µM. The “CC50 (HepG2)/IC50 (Mino)” value in series [3] amounted to 6.63. In addition, the “Amount of substance in the sample in %” value in series [4] is reported as 100%. Further, the figures for the IC50 in series [5] and in series [6] were > 50 µM and 11 µM, respectively.

Values taken from patent US20190352276A1, “INHIBITORS OF BRUTON'S TYROSINE KINASE” (Joint Stock Company "Biocad", priority 2016, published 2019).
